Assay results published in patent publication US20110275630A1, “ISO[…] INHIBITORS” (ABBOTT LABORATORIES, priority 2003, published 2011).

Molecular target: T1, ROCK 2 (Homo sapiens, UniProt O75116)
T1 construct: ROCK1 (1.5 nM; Invitrogen) or ROCK2 (0.2 nM; Upstate) catalytic domains; purchased Upstate
Test: ROCK kinase activity assays ([33P]-ATP FlashPlate assay / HTRF assay)
Assay type: biochemical
Text: [33P]-ATP assay: ROCK activity is initially determined using a radioactive FlashPlate-based assay.

T1 sequence (O75116 92-354 limits assumed, species assumed): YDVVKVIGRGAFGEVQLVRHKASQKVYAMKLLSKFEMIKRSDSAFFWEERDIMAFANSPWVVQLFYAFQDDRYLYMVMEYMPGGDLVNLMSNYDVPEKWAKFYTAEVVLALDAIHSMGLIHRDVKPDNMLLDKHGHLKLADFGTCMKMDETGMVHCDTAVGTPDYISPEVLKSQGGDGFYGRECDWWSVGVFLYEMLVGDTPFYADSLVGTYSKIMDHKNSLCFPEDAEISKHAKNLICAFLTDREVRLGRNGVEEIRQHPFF

Ki [nM]	Structure (SMILES)
201	O=C(Nc1ccc(-c2cccc3c2CNC3=O)cc1)c1ccc(N2CCOCC2)nc1 [Example 136, 6-(morpholin-4-yl)-N-[4-(1-oxo-2,3-dihydro-1H-isoindol-4-yl)phenyl]pyridine-3-carboxamide]
66.1	O=C(Nc1ccc(-c2cccc3c2CNC3=O)cc1)c1cc2ccccc2o1 [Example 132, N-[4-(1-oxo-2,3-dihydro-1H-isoindol-4-yl)phenyl]-1-benzofuran-2-carboxamide]
153	O=C1NCc2c1cccc2-c1ccc(Nc2nc3ccc(Cl)cc3o2)cc1 [Example 139, 4-{4-[(6-chloro-1,3-benzoxazol-2-yl)amino]phenyl}-2,3-dihydro-1H-isoindol-1-one]
8.75	O=C(Nc1ccc(-c2cccc3c2CNC3=O)cc1)c1cccc(S(=O)(=O)N2CCOCC2)c1 [Example 135, 3-(morpholin-4-ylsulfonyl)-N-[4-(1-oxo-2,3-dihydro-1H-isoindol-4-yl)phenyl]benzamide]
32.6	O=C(Nc1ccc(-c2cccc3c2CNC3=O)cc1)c1cc2cc(F)ccc2[nH]1 [Example 131, 5-fluoro-N-[4-(1-oxo-2,3-dihydro-1H-isoindol-4-yl)phenyl]-1H-indole-2-carboxamide]
27.4	O=C(Nc1ccc(-c2cccc3c2CNC3=O)cc1)c1cc2ccccc2[nH]1 [Example 140, N-[4-(1-oxo-2,3-dihydro-1H-isoindol-4-yl)phenyl]-1H-indole-2-carboxamide]
331	O=C(Nc1ccc(-c2cccc3c2CNC3=O)cc1)c1ccc2c(c1)OCCO2 [Example 134, N-[4-(1-oxo-2,3-dihydro-1H-isoindol-4-yl)phenyl]-2,3-dihydro-1,4-benzodioxine-6-carboxamide]
12.8	NC1CCN(S(=O)(=O)c2cccc(C(=O)Nc3ccc(-c4cccc5c4CNC5=O)cc3)c2)CC1 [Example 137, 3-[(4-aminopiperidin-1-yl)sulfonyl]-N-[4-(1-oxo-2,3-dihydro-1H-isoindol-4-yl)phenyl]benzamide]
